The test has as its target T1, rat PTP1 (Rattus norvegicus, UniProt P20417).
T1 construct: a C-terminal truncation of rat PTP1 (amino acid residues 1-322); GST (N, cleaved yes); made in house; host or cells: E. coli strain TG-1 (pGEX-2T)
T1 sequence (P20417 1-322): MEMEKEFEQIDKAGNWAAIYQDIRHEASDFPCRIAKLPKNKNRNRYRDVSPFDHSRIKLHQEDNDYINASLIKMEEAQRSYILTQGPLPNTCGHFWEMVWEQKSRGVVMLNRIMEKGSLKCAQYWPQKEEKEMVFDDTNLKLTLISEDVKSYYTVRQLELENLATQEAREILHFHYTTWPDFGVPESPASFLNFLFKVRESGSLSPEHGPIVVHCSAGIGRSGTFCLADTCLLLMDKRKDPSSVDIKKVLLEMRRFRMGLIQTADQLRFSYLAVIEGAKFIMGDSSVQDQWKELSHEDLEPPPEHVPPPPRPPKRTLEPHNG
The test is described as follows: PTP1 assay, pNPP hydrolysis (rate of change in A405). Type of test: biochemical. From the text: PTP1 Assays: A construct, which consisted of a C-terminal truncation of rat PTP1 (amino acid residues 1-322) (cloned from a rat brain library) with an N-terminal glutathione S-transferase (GST) tag and an adjacent thrombin cleavage site, was inserted into vector plasmid pGEX-2T and transformed into E. coli strain TG-1 under the control of a lac promoter (K. L. Guan and J. E. Dixon (1991) Eukaryotic proteins expressed in Escherichia coli: an improved thrombin cleavage and purification procedure of fusion proteins with glutathione S-transferase. Analyt. Biochem. 192: 262-267). The GST-fusion protein was purified on a glutathione agarose affinity column, the GST tag was cleaved with thrombin, and the active enzyme was recovered for use in an assay to identify PTP inhibitors.
PTP1 activity is measured using either p-nitrophenol phosphate (pNPP) or a triphosphopeptide (that matches residues 1142 through 1153 of the β-subunit and the insulin receptor) as substrate in a 96-well microtiter plate format. An assay pH of 7.2 is used for standard assays (measured 405=9800 at pH 7.2).
Standard assays are conducted at room temperature in a total volume of 0.2 ml that contains Hepes buffer (50 mM, pH 7.2), NaCl (50 mM), EDTA (1 mM), DTT (1 mM), bovine serum albumin (1 mg/ml), pNPP (1 mM) and PTP1 (35 ng/ml). Compounds (2 μl of 10 mM solutions) are pipetted into wells of microtiter plates followed by 198 μl of premixed reaction mix (with PTP1 and pNPP added immediately before use). The rate of change in A405 is recorded for 60 min. Two wells on each plate contain DMSO controls and two wells contain sodium orthovanadate (1 mM) which inhibits PTP1-catalyzed hydrolysis of pNPP completely. Data are expressed as percent inhibition relative to the average of the DMSO controls measured on the same microtiter plate.

The mark [1] stands for this setting: Conc 1 uM, pNPP hydrolysis, Table 2, read-out: PTP1 Inhib PTP1N. % Inhib.
The mark [2] stands for this setting: Conc 10 uM, pNPP hydrolysis, Table 2, read-out: PTP1 Inhib PTP1N. % Inhib.
Where [3] appears, read: Conc 100 uM, pNPP hydrolysis, Table 2, read-out: PTP1 Inhib PTP1N. % Inhib.
Setting [4] is: Conc 1 uM, pNPP hydrolysis, Table 1.
Where [5] appears, read: Conc 100 uM, pNPP hydrolysis, Table 1.
The mark [6] stands for this setting: inhibition of pNPP-hydrolysis, compound concentration 1 μM, read-out: % Inhibition.
Setting [7] is: inhibition of pNPP-hydrolysis, compound concentration 10 μM, read-out: % Inhibition.
[8] abbreviates: inhibition of pNPP-hydrolysis, compound concentration 100 μM, read-out: % Inhibition.
The mark [9] stands for this setting: Conc 1 uM, pNPP hydrolysis, Table 1, read-out: PTP1 Inhib % Inhib.
The mark [10] stands for this setting: Conc 10 uM, pNPP hydrolysis, Table 1, read-out: PTP1 Inhib % Inhib.
Where [11] appears, read: Conc 100 uM, pNPP hydrolysis, Table 1, read-out: PTP1 Inhib % Inhib.

The values below come from patent US6410585B1, “Inhibitors of protein tyrosine phosphatase” (priority 1997, dated 2002).

The structures appear in SMILES notation. Several values for one entry are separate records, joined by “and”; a condition that tells them apart may be missing. Identical values can stand only once. Like-named read-outs stand apart in the source and are kept apart here.

Consider `CCCCCNC(=O)C(Cc1ccc(OC(COO)COO)cc1)NC(=O)C(Cc1ccc(OCc2c(Cl)cccc2Cl)cc1)NC(=O)OC(C)(C)C` (stereo not drawn), for which, under setting [1], the inhibition at 1 µM came to 3%. In addition, the inhibition at 10 µM under setting [2] turned out to be 12%. Besides, the inhibition at 100 µM under setting [3] stood at 85%.

As to `CCCCCNC(=O)C(Cc1ccc(OC(COO)COO)cc1)NC(=O)CCC(=O)O` (stereo not drawn) [drawing 81], the “PTP1 Inhib % Inhib” value is 1% under setting [4]; 25% (Conc 10 uM, pNPP hydrolysis, Table 1); 81% and 76% under setting [5].

For `CCCCCNC(=O)C(Cc1ccc(OC(C(=O)O)C(=O)O)c(F)c1)NC(=O)CCC(=O)O` (stereo not drawn), the inhibition at 1 µM under setting [1] worked out at 4%. In addition, the inhibition at 10 µM under setting [2] was 29%. Further, the inhibition at 100 µM under setting [3] was 78%.

As to `COc1ccc(CCCCNC(=O)[C@H](Cc2ccc(OCC(=O)O)c(C(=O)O)c2)NC(=O)c2ccc(Cl)nc2)cc1` [Example 154-34, 2-(carboxymethoxy)-5-((2S)-2-{[(6-chloro-3-pyridinyl)carbonyl]amino}-3-{[4-(4-methoxyphenyl)butyl]amino}-3-oxopropyl)benzoic acid], the inhibition at 1 µM under setting [6] stood at 26%. The inhibition at 10 µM under setting [7] was found to be 77%. In addition, the inhibition at 100 µM under setting [8] was 96%.

As for `CCCCCNC(=O)[C@H](Cc1ccc(OC(C(=O)O)C(=O)O)cc1)NC(=O)C1CCCCC1C(=O)O` (stereo partly drawn), under setting [9], the inhibition at 1 µM amounted to 3%. Also, the inhibition at 10 µM under setting [10] was 13%. In addition, the inhibition at 100 µM under setting [11] came to 62%.

As for `CCCCCNC(=O)C(Cc1ccc(OC(COO)COO)cc1)NC(=O)C(Cc1ccc(OC)cc1)NC(=O)CCC(=O)O` (stereo not drawn), the inhibition at 1 µM under setting [1] was 32%. Under setting [2], the inhibition at 10 µM turned out to be 83%. In addition, under setting [3], the inhibition at 100 µM amounted to 98%.

Take `CCCCC/C=C/[C@H](Cc1ccc(OC(C(=O)O)C(=O)O)cc1)NC(=O)CCC(=O)O`: the inhibition at 1 µM under setting [1] stood at 1%. The inhibition at 10 µM under setting [2] stood at 14%. In addition, the inhibition at 100 µM under setting [3] turned out to be 70%.

As to `O=C(O)COc1ccc(C[C@H](NC(=O)c2ccoc2)C(=O)NCCCCc2ccccc2)cc1C(=O)O` [Example 154-15, 2-(carboxymethoxy)-5-{(2S)-2-(3-furoylamino)-3-oxo-3-[(4-phenylbutyl)amino]propyl}benzoic acid], the inhibition at 1 µM under setting [6] stood at 80%. Moreover, the inhibition at 10 µM under setting [7] was 31%. Moreover, the inhibition at 100 µM under setting [8] came to 97%.

As for `CCCCCNC(=O)C(Cc1ccc(OC(COO)COO)cc1)NC(=O)NCCC(=O)O` (stereo not drawn), the “PTP1 Inhib % Inhib” value was determined as 3% under setting [4] and 74% under setting [5]. Also, under setting [9], the inhibition at 1 µM amounted to 2%. Further, under setting [10], the inhibition at 10 µM was 21%. In addition, the inhibition at 100 µM under setting [11] worked out at 72%.

As for `O=C(O)CCC(=O)NC(Cc1ccc(OC(COO)COO)cc1)C(=O)NCCCc1ccccc1` (stereo not drawn), the inhibition at 1 µM under setting [9] was found to be 8%. Besides, under setting [10], the inhibition at 10 µM was 23%. In addition, the inhibition at 100 µM under setting [11] turned out to be 72%.

On to `CCCCCNC(=O)C(Cc1ccc(OC(COO)COO)cc1)NC(=O)Nc1cc(C(=O)O)cc(C(=O)O)c1` (stereo not drawn), for which the inhibition at 1 µM under setting [9] worked out at 16%. Besides, the inhibition at 10 µM under setting [10] worked out at 64%. In addition, the inhibition at 100 µM under setting [11] came to 94%.

For the compound `CCCCCNC(=O)[C@H](Cc1ccc(OC(C(=O)O)C(=O)O)cc1)NC(=O)C(CC(=O)O)CC(=O)O`, the inhibition at 1 µM under setting [9] turned out to be 1%. The inhibition at 10 µM under setting [10] amounted to 33%. Also, the inhibition at 100 µM under setting [11] is 83%.

With `CCCCCNC(=O)C(Cc1ccc(OC(COO)COO)cc1)NC(=O)C(Cc1ccc(C(=O)c2ccccc2)cc1)NC(=O)CCC(=O)O` (stereo not drawn) [drawing 133], the inhibition at 1 µM under setting [9] amounted to 42%. Moreover, the inhibition at 10 µM under setting [10] stood at 87%. Further, the inhibition at 100 µM under setting [11] was determined as 98%.

Consider `CCCCCNC(=O)C(Cc1ccc(OC(COO)COO)cc1)NC(=O)CCC(=O)OCc1ccccc1` (stereo not drawn), for which the inhibition at 1 µM under setting [9] came out at 4%. Besides, under setting [10], the inhibition at 10 µM came out at 9%. In addition, the inhibition at 100 µM under setting [11] is 39%.

As for `CC(C)OCCCNC(=O)[C@H](Cc1ccc(OCC(=O)O)c(C(=O)O)c1)NC(=O)[C@H](Cc1ccccc1)NC(=O)OC(C)(C)C` [Example 157-16, 5-{(2S)-2-({(2S)-2-[(tert-Butoxycarbonyl)amino]-3-phenylpropanoyl}amino)-3-[(3-isopropoxypropyl)amino]-3-oxopropyl}-2-(carboxymethoxy)benzoic Acid], the inhibition at 1 µM under setting [6] worked out at 38%. The inhibition at 10 µM under setting [7] worked out at 83%. In addition, the inhibition at 100 µM under setting [8] was 97%.

Regarding `CCCCCNC(=O)C(Cc1ccc(OC(COO)COO)cc1)NC(=O)C(Cc1ccc(OC(C)(C)C)cc1)NC(=O)CCC(=O)O` (stereo not drawn), the inhibition at 1 µM under setting [1] was determined as 37%. Also, the inhibition at 10 µM under setting [2] was found to be 83%. Moreover, the inhibition at 100 µM under setting [3] was 97%.

As for `CCCCCNC(=O)C(Cc1ccc(OC(COO)COO)cc1)NC(=O)N(CC(=O)O)Cc1ccc(OCc2ccccc2)cc1` (stereo not drawn), under setting [9], the inhibition at 1 µM came out at 5%. Besides, the inhibition at 10 µM under setting [10] is 35%. Moreover, the inhibition at 100 µM under setting [11] is 90%.

Take `CC(C)(C)OC(=O)N[C@@H](Cc1ccccc1)C(=O)N[C@@H](Cc1ccc(OCC(=O)O)c(C(=O)O)c1)C(=O)NCCCCc1ccccc1` [Example 157-2, 5-{(2S)-2-({(2S)-2-[(tert-Butoxycarbonyl)amino]-3-phenylpropanoyl}amino)-3-oxo-3-[(4-phenylbutyl)amino]propyl}-2-(carboxymethoxy)benzoic Acid]: under setting [6], the inhibition at 1 µM worked out at 64%. Also, the inhibition at 10 µM under setting [7] came out at 93%. In addition, the inhibition at 100 µM under setting [8] was 98%.

As to `CCCCCNC(=O)C(Cc1ccc(OC(CCOO)COO)cc1)NC(=O)CCC(=O)O` (stereo not drawn), under setting [9], the inhibition at 1 µM came to 0%. In addition, under setting [10], the inhibition at 10 µM turned out to be 1%. Further, the inhibition at 100 µM under setting [11] turned out to be 34%.

`NS(=O)(=O)c1ccc(CCNC(=O)C(Cc2ccc(OC(COO)COO)cc2)NC(=O)CCC(=O)O)cc1` (stereo not drawn): the inhibition at 1 µM under setting [9] worked out at 4%. For the same compound, the inhibition at 10 µM under setting [10] came to 19%. The inhibition at 100 µM under setting [11] worked out at 63%.

In the case of `[Na+].[Na+].[Na+].[O]=[V]([O-])([O-])[O-]` [sodium orthovanadate, reference compound], the “inhibits PTP1-catalyzed hydrolysis of pNPP” value (1 mM, control wells on each plate) was “completely”.

Take `CCCCCCCCCCNC(=O)C(Cc1ccc(OC(COO)COO)cc1)NC(=O)CCC(=O)O` (stereo not drawn): the inhibition at 1 µM under setting [9] came to 4%. Moreover, the inhibition at 10 µM under setting [10] came to 3%. Moreover, the inhibition at 100 µM under setting [11] stood at 51%.

In the case of `CCCCCNC(=O)C(Cc1ccc(OS(=O)(=O)O)cc1)NC(=O)CCC(=O)O` (stereo not drawn), the inhibition at 1 µM under setting [9] came out at 3%. Under setting [10], the inhibition at 10 µM was found to be 8%. Besides, under setting [11], the inhibition at 100 µM stood at 80%.

As for `CC(C)(C)OC(=O)N[C@@H](Cc1ccccc1)C(=O)N[C@@H](Cc1ccc(OCC(=O)O)c(C(=O)O)c1)C(=O)NCc1cccnc1` [Example 157-14, 5-{(2S)-2-({(2S)-2-[(tert-Butoxycarbonyl)amino]-3-phenylpropanoyl}amino)-3-oxo-3-[(3-pyridinylmethyl)amino]propyl}-2-(carboxymethoxy)benzoic Acid], the inhibition at 1 µM under setting [6] was determined as 20%. Under setting [7], the inhibition at 10 µM is 67%. The inhibition at 100 µM under setting [8] is 94%.

Regarding `CC(C)(C)OC(=O)N[C@@H](Cc1ccccc1)C(=O)N[C@H](CO)Cc1ccc(OCC(=O)O)c(C(=O)O)c1` [Example 148, 5-[(2S)-2-({(2S)-2-[(tert-butoxycarbonyl)amino]-3-phenylpropanoyl}amino)-3-hydroxypropyl]-2-(carboxymethoxy)benzoic Acid], under setting [6], the inhibition at 1 µM turned out to be 5%. In addition, under setting [7], the inhibition at 10 µM is 31%. Besides, the inhibition at 100 µM under setting [8] amounted to 80%.

As to `O=C(O)CCC(=O)N[C@@H](Cc1ccc(OC(C(=O)O)C(=O)O)cc1)C(=O)NCCC(c1ccccc1)c1ccccc1`, the inhibition at 1 µM under setting [9] came out at 0%. The inhibition at 10 µM under setting [10] turned out to be 3%. The inhibition at 100 µM under setting [11] is 45%.

As to `CCCC[C@H](NC(=O)[C@H](Cc1ccc(OC(C(=O)O)C(=O)O)cc1)NC(=O)CCC(=O)O)C(N)=O`, the inhibition at 1 µM under setting [9] was 16%. For the same compound, the inhibition at 10 µM under setting [10] stood at 63%. Moreover, the inhibition at 100 µM under setting [11] is 93%.
